Patent US20180256673A1, “METHODS FOR TREATING FUNGAL INFECTIONS” (priority 2015, published 2018)
In brackets after ≈: the same amount, converted by molar mass. Read-outs that look alike come from different tables or passages of the source.

Experiments:
[1] = test system: C. albicans vaginal isolates; assay: Susceptibility testing of VVC clinical isolates at pH 7 and 4 (CLSI M27-A3); format: cell-based, Candida albicans; settings: for Number of isolates at MIC 0.25 μg/mL / Number of isolates at MIC 0.5 μg/mL / Number of isolates at MIC 1 μg/mL / Number of isolates at MIC 2 μg/mL / Number of isolates at MIC 4 μg/mL / Number of isolates at MIC ≥4 μg/mL / Number of isolates at MIC 0.125 μg/mL: 60 VVC isolates; for MIC / MIC90: Candida albicans; for MIC: read-out: MIC; for MIC90: 60 isolates, read-out: MIC90
[2] = test system: C. glabrata vaginal isolates; assay: as above; format: cell-based, Candida glabrata; settings: for MIC90: Nakaseomyces glabratus, 21 isolates, read-out: MIC90
[3] = test system: C. parapsilosis vaginal isolates; assay: as above; format: cell-based, Candida parapsilosis; settings: 14 isolates, read-out: MIC90
[4] = test system: C. tropicalis vaginal isolates; assay: as above; format: cell-based; settings: Candida tropicalis, 13 isolates, read-out: MIC90
[5] = test system: Candida parapsilosis; assay: Broth microdilution of invasive fungal isolates (CLSI M27-A3/M38-A2); format: cell-based; settings: CLSI breakpoints

## OC(Cn1cncn1)(Cn1cncn1)c1ccc(F)cc1F [FLU, fluconazole]
[1]; 24 h, pH 4
  Number of isolates at MIC 0.25 μg/mL: 35
  Number of isolates at MIC 0.5 μg/mL: 13
  Number of isolates at MIC 1 μg/mL: 2
  Number of isolates at MIC 2 μg/mL: 2
  Number of isolates at MIC 4 μg/mL: 1
  Number of isolates at MIC ≥4 μg/mL: 7
[1]; 24 h, pH 7
  Number of isolates at MIC 0.125 μg/mL: 25
  Number of isolates at MIC 0.25 μg/mL: 19
  Number of isolates at MIC 0.5 μg/mL: 7
  Number of isolates at MIC 1 μg/mL: 1
  Number of isolates at MIC 2 μg/mL: 2
  Number of isolates at MIC ≥4 μg/mL: 6
[1]; 48 h, pH 4
  Number of isolates at MIC 0.5 μg/mL: 27
  Number of isolates at MIC 1 μg/mL: 13
  Number of isolates at MIC 2 μg/mL: 5
  Number of isolates at MIC 4 μg/mL: 1
  Number of isolates at MIC ≥4 μg/mL: 14
[1]; 48 h, pH 7
  Number of isolates at MIC 0.125 μg/mL: 3
  Number of isolates at MIC 0.25 μg/mL: 37
  Number of isolates at MIC 0.5 μg/mL: 8
  Number of isolates at MIC 1 μg/mL: 2
  Number of isolates at MIC 2 μg/mL: 1
  Number of isolates at MIC ≥4 μg/mL: 9
[1]; 48 h, pH 4, fluconazole-resistant isolate 1, pH 4, 48 h
  MIC: > 64 µg/mL
[1]; 48 h, pH 4, fluconazole-resistant isolate 2, pH 4, 48 h
  MIC: 32 µg/mL (≈ 104 µM)
[1]; 48 h, pH 4, fluconazole-resistant isolate 3, pH 4, 48 h
  MIC: > 64 µg/mL
[1]; 48 h, pH 4, fluconazole-resistant isolate 4, pH 4, 48 h
  MIC: > 64 µg/mL
[1]; 48 h, pH 4, fluconazole-resistant isolate 5, pH 4, 48 h
  MIC: > 64 µg/mL
[1]; 48 h, pH 4, fluconazole-resistant isolate 6, pH 4, 48 h
  MIC: > 64 µg/mL
[1]; 48 h, pH 4, fluconazole-resistant isolate 7, pH 4, 48 h
  MIC: 32 µg/mL (≈ 104 µM)
[1]; 48 h, pH 4, fluconazole-resistant isolate 8, pH 4, 48 h
  MIC: > 64 µg/mL
[1]; 48 h, pH 4, fluconazole-resistant isolate 9, pH 4, 48 h
  MIC: > 64 µg/mL
[1]; 48 h, pH 4, fluconazole-resistant isolate 10, pH 4, 48 h
  MIC: 64 µg/mL (≈ 209 µM)
[1]; 48 h, pH 7, fluconazole-resistant isolate 1, pH 7, 48 h
  MIC: 16 µg/mL (≈ 52.2 µM)
[1]; 48 h, pH 7, fluconazole-resistant isolate 2, pH 7, 48 h
  MIC: 16 µg/mL (≈ 52.2 µM)
[1]; 48 h, pH 7, fluconazole-resistant isolate 3, pH 7, 48 h
  MIC: 16 µg/mL (≈ 52.2 µM)
[1]; 48 h, pH 7, fluconazole-resistant isolate 4, pH 7, 48 h
  MIC: 8 µg/mL (≈ 26.1 µM)
[1]; 48 h, pH 7, fluconazole-resistant isolate 5, pH 7, 48 h
  MIC: > 64 µg/mL
[1]; 48 h, pH 7, fluconazole-resistant isolate 6, pH 7, 48 h
  MIC: 0.25 µg/mL (≈ 0.816 µM)
[1]; 48 h, pH 7, fluconazole-resistant isolate 7, pH 7, 48 h
  MIC: 16 µg/mL (≈ 52.2 µM)
[1]; 48 h, pH 7, fluconazole-resistant isolate 8, pH 7, 48 h
  MIC: 32 µg/mL (≈ 104 µM)
[1]; 48 h, pH 7, fluconazole-resistant isolate 9, pH 7, 48 h
  MIC: > 64 µg/mL
[1]; 48 h, pH 7, fluconazole-resistant isolate 10, pH 7, 48 h
  MIC: 16 µg/mL (≈ 52.2 µM)
[1]; pH 4, 24 h
  MIC90: 8 µg/mL (≈ 26.1 µM)
[1]; pH 4, 48 h
  MIC90: > 64 µg/mL
[1]; pH 7, 24 h
  MIC90: 8 µg/mL (≈ 26.1 µM)
[1]; pH 7, 48 h
  MIC90: 16 µg/mL (≈ 52.2 µM)
[2]; 21 VVC isolates, 24 h, pH 4
  Number of isolates at MIC 2 μg/mL: 5
  Number of isolates at MIC 4 μg/mL: 3
  Number of isolates at MIC ≥4 μg/mL: 13
[2]; 21 VVC isolates, 24 h, pH 7
  Number of isolates at MIC 0.5 μg/mL: 4
  Number of isolates at MIC 1 μg/mL: 2
  Number of isolates at MIC 2 μg/mL: 5
  Number of isolates at MIC 4 μg/mL: 2
  Number of isolates at MIC ≥4 μg/mL: 8
[2]; 21 VVC isolates, 48 h, pH 4
  Number of isolates at MIC 2 μg/mL: 1
  Number of isolates at MIC 4 μg/mL: 2
  Number of isolates at MIC ≥4 μg/mL: 18
[2]; 21 VVC isolates, 48 h, pH 7
  Number of isolates at MIC 1 μg/mL: 3
  Number of isolates at MIC 2 μg/mL: 4
  Number of isolates at MIC 4 μg/mL: 2
  Number of isolates at MIC ≥4 μg/mL: 12
[2]; pH 4, 24 h
  MIC90: 64 µg/mL (≈ 209 µM)
[2]; pH 4, 48 h
  MIC90: > 64 µg/mL
[2]; pH 7, 24 h
  MIC90: 16 µg/mL (≈ 52.2 µM)
[2]; pH 7, 48 h
  MIC90: > 64 µg/mL
[3]; pH 4, 24 h
  MIC90: 8 µg/mL (≈ 26.1 µM)
[3]; pH 4, 48 h
  MIC90: > 64 µg/mL
[3]; pH 7, 48 h
  MIC90: 32 µg/mL (≈ 104 µM)
[4]; pH 4, 24 h
  MIC90: 8 µg/mL (≈ 26.1 µM)
[4]; pH 4, 48 h
  MIC90: > 64 µg/mL
[4]; pH 7, 24 h
  MIC90: 2 µg/mL (≈ 6.53 µM)
[4]; pH 7, 48 h
  MIC90: 64 µg/mL (≈ 209 µM)
[5]
  % of isolates with fluconazole resistance: 4.3%
